Source: US20240269305A1, “STING AGONIST SUITABLE AS PAYLOAD OF ANTIBODY DRUG CONJUGATE” (HITGEN INC., priority 2021, published 2024)

Tests used:
STING signaling pathway [1] = test: IFN-β production in THP1 cells (ELISA); assay type: cell-based; conditions: Homo sapiens, read-out: IFN-β EC50
Procedure: In this experiment, the function of sting agonists was evaluated by detecting the changes of IFN-β and CXCL10 (IP10) cytokines which were produced by the stimulation of the compounds to human peripheral blood mononuclear cell line THP1 cell (Shanghai Cell Bank). On the first day of the experiment, ELISA plates were coated according to the instructions of IFN-β (R&D, #DY814-05) and IP10 (BD, #550926) ELISA detection kits. The compound was dissolved in DMSO as a stock solution, which was diluted with culture medium to a 2× working concentration, and then added to a 96-well plate at 100 μL per well; THP1 cells in the logarithmic growth phase were counted and diluted to a concentration of 2*10^6/mL, which was then added at 100 μL per well to the aforementioned 96-well plate containing the compounds. After mixed, the above cells in the 96-well plate were incubated at 37° C. and 5% CO2 for 18 h. On the second day, the above cell culture supernatant was aspirated at 100 μL per well, and then their OD450 values were determined using the IFN-β and IP10 ELISA detection kits respectively. The obtained data was converted to the concentration of IFN-β and IP10 according to the standard curve, and the EC50 values were calculated using GraphPad 5.0 to fit the dose-effect curve.

STING signaling pathway [2] = test: THP1-Blue ISG reporter assay (QUANTI-Blue); assay type: cell-based, human
Procedure: (§1) In this experiment, THP1-Blue™ ISG (interferon-stimulated genes) cell line (InvivoGen, catalog number: thp-isg) was used to evaluate the activating of interferon signaling pathway after the treatment by the compounds. THP1-Blue™ ISG cells were cultured using RPMI1640 medium (containing 10% heat-inactivated fetal bovine serum, 100 μg/ml Zeocin™, InvivoGen, catalog number: ant-zn-1). On the first day of the experiment, the compound was dissolved in DMSO as a stock solution, which was then diluted with culture medium to 2× working concentration and then 100 μL per well of the above dilution was added to a 96-well plate; THP1 cells in the logarithmic growth phase were counted and diluted to a concentration of 1*10^6 cells/mL, which was then added at 100 μL per well (1*10^5 cells/well) to the aforementioned 96-well plate containing the compounds. After mixed, the above cells in the 96-well plate were incubated at 37° C. with 5% CO2 for 18 h. On the second day, the above cell culture supernatant was aspirated at 20 μL per well, which was added to a new 96-well plate. And then 180 μL per well of QUANTI-Blue™ solution (InvivoGen, catalog number: rep-qbs1) was added. The above cells in the 96-well plate were incubated at 37° C. for 1 h. OD (620-655 nm) value was read on a Microplate Reader, and the EC50 value was calculated by using GraphPad to fit the dose-effect curve. 50 μL of Celltiter Glo solution (Promega, Cat. No. G756B) was added to the remaining cell culture plates.

[3] = Cytotoxicity in THP1-Blue ISG cells (Celltiter Glo); assay type: cell-based, human; conditions: Celltiter Glo luminescence; for CC50 at 18 h: human
Procedure: as §1

STING signaling pathway [4] = test: Cytokine secretion in PBMC (ELISA); assay type: cell-based; conditions: 6 h
Procedure: (§2) The following experiments were performed to determine the activation effect of the compound on the STING signaling pathway in PBMC cells, which mainly using ELISA to detect the secretion of IL-6, TNF-, IFN-, and IFN- in the cell culture supernatant. At the same time, CTG (CellTiter-Glo) was used to detect the survival rate of the cells, and to calculate the half cytotoxic dose of cells CC50.
(§3) The frozen PBMC cells were placed in a 37° C. water bath. After the ice was completely melted, the cells were transferred to 3 ml of RPMI 1640 complete culture medium (containing 10% FBS), and then centrifuged at 1500 rpm for 3 minutes. After removing the supernatant, the cells were re-suspended for counting. 200 μL of 50,000 PBMC cells were added in a 96-well plate, and the compounds to be tested were diluted with different gradient concentrations. After 6 h, 150 μL of the cell supernatant was aspirated, and the concentrations of IL-6, TNF-, IFN-, and IFN- were measured using ELISA kits, and the curves of compound concentration and cytokine release were drawn to calculate the values of EC50. 50 μL of CTG solution was added to the remaining cell culture plate.

[5] = Cytotoxicity in PBMC (CellTiter-Glo); assay type: cell-based; conditions: PBMC cells, CTG
Procedure: as §2, §3

[6] = THP-1, THP1 cells, 18 h incubation, ELISA of culture supernatant
[7] = Homo sapiens, THP1-Blue ISG cells, 18 h incubation, QUANTI-Blue OD 620-655 nm, read-out: EC50
[8] = ELISA of supernatant, read-out: IFN-β EC50
[9] = ELISA of supernatant, read-out: IL-6 EC50
[10] = ELISA of supernatant, read-out: TNF-α EC50
[11] = THP1-Blue ISG cells, 18 h incubation, QUANTI-Blue OD 620-655 nm, read-out: EC50

SMILES	EC50 (STING signaling pathway [1]; [6])	EC50 (STING signaling pathway [2]; [7])	CC50 at 18 h [3]	EC50 (STING signaling pathway [4]; [8])	EC50 (STING signaling pathway [4]; [9])	EC50 (STING signaling pathway [4]; [10])	CC50 at 6 h [5]	further results
CCc1nc(C)sc1C(=O)Nc1nc2cc(C(N)=O)cc(OCCCN3CCN(C(=O)CCN)CC3)c2n1C/C=C/Cn1c(NC(=O)c2cc(C)nn2CC)nc2cc(C(N)=O)cc(SC)c21 [Example 1]	0.1 to 1 µM	< 0.1 µM	> 50 µM	0.1 to 1 µM	0.1 to 1 µM	0.1 to 1 µM	> 25 µM	–
CCc1nc(C)sc1C(=O)Nc1nc2cc(C(N)=O)cc(OCCCN3CCN(C(=O)CCCNC)CC3)c2n1C/C=C/Cn1c(NC(=O)c2cc(C)nn2CC)nc2cc(C(N)=O)cc(SC)c21 [Example 2]	0.1 to 1 µM	< 0.1 µM	> 50 µM	0.1 to 1 µM	0.1 to 1 µM	0.1 to 1 µM	> 40 µM	–
CCc1nc(C)sc1C(=O)Nc1nc2cc(C(N)=O)cc(OCCCN3CCN(C(=O)C(C)(C)CCN)CC3)c2n1C/C=C/Cn1c(NC(=O)c2cc(C)nn2CC)nc2cc(C(N)=O)cc(SC)c21 [Example 3]	0.1 to 1 µM	< 0.1 µM	> 50 µM	0.1 to 1 µM	0.1 to 1 µM	0.1 to 1 µM	> 40 µM	–
CCc1nc(C)sc1C(=O)Nc1nc2cc(C(N)=O)cc(OCCCN3CCN(C(=O)OCCCN4CCNCC4)CC3)c2n1C/C=C/Cn1c(NC(=O)c2cc(C)nn2CC)nc2cc(C(N)=O)cc(SC)c21 [Example 6]	0.1 to 1 µM	–	–	–	–	–	–	–
CCc1nc(C)sc1C(=O)Nc1nc2cc(C(N)=O)cc(OCCCN3CCN(C(=O)OCCCC4CCNCC4)CC3)c2n1C/C=C/Cn1c(NC(=O)c2cc(C)nn2CC)nc2cc(C(N)=O)cc(SC)c21 [Example 8]	–	–	–	–	–	–	–	EC50 (STING signaling pathway [1]; THP-1, 18 h): 0.1 to 1 µM
CCc1nc(C)sc1C(=O)Nc1nc2cc(C(N)=O)cc(OCCCN3CCN(C(=O)OCCCN)CC3)c2n1C/C=C/Cn1c(NC(=O)c2cc(C)nn2CC)nc2cc(C(N)=O)cc(SC)c21 [Example 10]	–	–	> 50 µM	–	–	–	> 40 µM	EC50 (STING signaling pathway [1]; THP-1, 18 h): 0.1 to 1 µM; EC50 (STING signaling pathway [2]; Homo sapiens, THP1-Blue ISG, 18 h): < 0.1 µM; EC50 (STING signaling pathway [4]; read-out: IFN-β EC50): 0.1 to 1 µM; EC50 (STING signaling pathway [4]; read-out: IL-6 EC50): 0.1 to 1 µM; EC50 (STING signaling pathway [4]; read-out: TNF-α EC50): 0.1 to 1 µM
CCc1nc(C)sc1C(=O)Nc1nc2cc(C(N)=O)cc(OCCCN3CCN(CCNC)CC3)c2n1C/C=C/Cn1c(NC(=O)c2cc(C)nn2CC)nc2cc(C(N)=O)cc(SC)c21 [Example 11]	> 1 µM	–	–	–	–	–	–	–
CCc1nc(C)sc1C(=O)Nc1nc2cc(C(N)=O)cc(OCCCN3CCN(CCN)CC3)c2n1C/C=C/Cn1c(NC(=O)c2cc(C)nn2CC)nc2cc(C(N)=O)cc(SC)c21 [Example 12]	> 1 µM	–	–	–	–	–	–	–
CCc1nc(C)sc1C(=O)Nc1nc2cc(C(N)=O)cc(SC)c2n1C/C=C/Cn1c(NC(=O)c2cc(C)nn2CC)nc2cc(C(N)=O)cc(OCCCN3CCN(C(=O)OCCCC4CCNCC4)CC3)c21 [Example 13]	0.1 to 1 µM	< 0.1 µM	> 50 µM	0.1 to 1 µM	< 0.1 µM	< 0.1 µM	> 50 µM	–
CCc1nc(C)sc1C(=O)Nc1nc2cc(C(N)=O)cc(SC)c2n1C/C=C/Cn1c(NC(=O)c2c(F)c(C)nn2CC)nc2cc(C(N)=O)cc(OCCCN3CCN(C(=O)OCCCC4CCNCC4)CC3)c21 [Example 14]	0.1 to 1 µM	< 0.1 µM	> 50 µM	0.1 to 1 µM	0.1 to 1 µM	< 0.1 µM	> 50 µM	–
CCc1nc(C)sc1C(=O)Nc1nc2cc(C(N)=O)cc(OCCCN3CCN(C(=O)OCCCC4CCNCC4)CC3)c2n1C/C=C/Cn1c(NC(=O)c2c(F)c(C)nn2CC)nc2cc(C(N)=O)cc(SC)c21 [Example 15]	0.1 to 1 µM	–	–	–	–	–	–	–
CCc1nc(C)sc1C(=O)Nc1nc2cc(C(N)=O)cc(OCCCN3CCOCC3)c2n1C/C=C/Cn1c(NC(=O)c2c(F)c(C)nn2CC)nc2cc(C(N)=O)cc(SCCCN)c21 [Example 17]	> 1 µM	–	–	–	–	–	–	–
CCc1nc(C)sc1C(=O)Nc1nc2cc(C(N)=O)cc(OCCCN3CCOCC3)c2n1C/C=C/Cn1c(NC(=O)c2c(F)c(C)nn2CC)nc2cc(C(N)=O)cc(SCCCNC(=O)OCCCC3CCNCC3)c21 [Example 18]	> 1 µM	–	–	–	–	–	–	–
CCc1nc(C)sc1C(=O)Nc1nc2cc(C(N)=O)cc(OCCCN3CCOCC3)c2n1C/C=C/Cn1c(NC(=O)c2c(F)c(C)nn2CC)nc2cc(C(N)=O)cc(OCCCN)c21 [Example 19]	> 1 µM	–	–	–	–	–	–	–
CCc1nc(C)sc1C(=O)Nc1nc2cc(C(N)=O)cc(OC)c2n1C/C=C/Cn1c(NC(=O)c2cc(C)nn2CC)nc2cc(C(N)=O)cc(OCCCN3CCNCC3)c21 [Example 20]	–	0.1 to 1 µM	> 50 µM	0.1 to 1 µM	0.1 to 1 µM	0.1 to 1 µM	> 50 µM	–
CCc1nc(C)sc1C(=O)Nc1nc2cc(C(N)=O)cc(OCCCN3CCNCC3)c2n1C/C=C/Cn1c(NC(=O)c2cc(C)nn2CC)nc2cc(C(N)=O)cc(OC)c21 [Example 21]	–	< 0.1 µM	–	0.1 to 1 µM	0.1 to 1 µM	< 0.1 µM	–	–
CCc1nc(C)sc1C(=O)Nc1nc2cc(C(N)=O)cc(OCCCN3CCN(C(=O)OCCCNC(=O)OCc4ccc(NC(=O)[C@H](CCCNC(N)=O)NC(=O)[C@@H](NC(=O)CCCCCN5C(=O)C=CC5=O)C(C)C)cc4)CC3)c2n1C/C=C/Cn1c(NC(=O)c2cc(C)nn2CC)nc2cc(C(N)=O)cc(SC)c21 [Example 40]	–	–	–	–	< 0.1 µM	< 0.1 µM	–	EC50 (STING signaling pathway [2]; [11]): < 0.1 µM; CC50 ([3]; 18 h): > 50 µM
CCc1nc(C)sc1C(=O)Nc1nc2cc(C(N)=O)cc(OCCCN3CCN(C(=O)C(C)(C)CCNC(=O)OCCCNC(=O)OCc4ccc(NC(=O)[C@H](CCCNC(N)=O)NC(=O)[C@@H](NC(=O)CCCCCN5C(=O)C=CC5=O)C(C)C)cc4)CC3)c2n1C/C=C/Cn1c(NC(=O)c2cc(C)nn2CC)nc2cc(C(N)=O)cc(SC)c21 [Example 41]	–	–	> 50 µM	–	0.1 to 1 µM	0.1 to 1 µM	–	EC50 (STING signaling pathway [2]; [11]): < 0.1 µM
